Source: ChEMBL document CHEMBL1201862, “PubChem BioAssay data set” (2004)
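Briefly, cells in 96-well plates were exposed to five compound concentrations for 48 h, and endpoints were estimated by linear interpolation. GI50: concentration for 50% inhibition of growth.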 Activity calls are given as the source filed them. Cut-off read from the data, not from the text of the source: active = GI50 up to about 1.1 µM and inactive = higher.

How the values were obtained:
Test in all cases: NCI anticancer screen, dose series, 48 h
786-0 = tested on: 786-0
T47D = tested on: T47D
OVCAR-5 = tested on: OVCAR-5
RXF 393 = tested on: RXF 393
NCI-H522 = tested on: NCI-H522
SF-539 = tested on: SF-539
NCI-H23 = tested on: NCI-H23
HL-60 = tested on: HL-60
CAKI-1 = tested on: CAKI-1
ACHN = tested on: ACHN
A498 = tested on: A498
M14 = tested on: M14
LOX IMVI = tested on: LOX IMVI
MDA-MB-231 = tested on: MDA-MB-231
CCRF-CEM = tested on: CCRF-CEM
MDA-MB-435 = tested on: MDA-MB-435
SW-620 = tested on: SW-620
NCI-H226 = tested on: NCI-H226
SNB-75 = tested on: SNB-75
UO-31 = tested on: UO-31
HCT-15 = tested on: HCT-15
NCI-H460 = tested on: NCI-H460
HCT-116 = tested on: HCT-116
HOP-92 = tested on: HOP-92
UACC-257 = tested on: UACC-257
OVCAR-8 = tested on: OVCAR-8
MDA-N = tested on: MDA-N
A549 = tested on: A549
COLO 205 = tested on: COLO 205
SN12C = tested on: SN12C
TK-10 = tested on: TK-10
SK-MEL-2 = tested on: SK-MEL-2
Hs-578T = tested on: Hs-578T
SNB-19 = tested on: SNB-19
IGROV-1 = tested on: IGROV-1
SK-MEL-5 = tested on: SK-MEL-5
OVCAR-4 = tested on: OVCAR-4
HT-29 = tested on: HT-29
SF-295 = tested on: SF-295
SK-OV-3 = tested on: SK-OV-3
NCI/ADR-RES = tested on: NCI/ADR-RES
KM12 = tested on: KM12
OVCAR-3 = tested on: OVCAR-3
SK-MEL-28 = tested on: SK-MEL-28
PC-3 = tested on: PC-3
SF-268 = tested on: SF-268
HCC 2998 = tested on: HCC 2998
DU-145 = tested on: DU-145
HOP-62 = tested on: HOP-62
U-251 = tested on: U-251
Malme-3M = tested on: Malme-3M
BT-549 = tested on: BT-549
UACC-62 = tested on: UACC-62
MCF7 = tested on: MCF7
EKVX = tested on: EKVX
K562 = tested on: K562
RPMI-8226 = tested on: RPMI-8226

With `OC(CCN1CCN(CCOC(c2ccccc2)c2ccccc2)CC1)c1ccc(Br)cc1` (stereo not drawn) the GI50 (786-0) was 10.7 µM (inactive), the GI50 (T47D) was 10.4 µM (inactive) and the GI50 (OVCAR-5) was 14.9 µM (inactive). For the same compound, the GI50 (RXF 393) was 9.38 µM (inactive), the GI50 (NCI-H522) was 14.3 µM (inactive) and the GI50 (SF-539) was 12.5 µM (inactive). The GI50 (NCI-H23) was 14 µM (inactive), the GI50 (HL-60) was 10.1 µM (inactive) and the GI50 (CAKI-1) was 12.2 µM (inactive). For the same compound, the GI50 (ACHN) was 10.8 µM (inactive), the GI50 (A498) was 3.72 µM (inactive) and the GI50 (M14) was 3.27 µM (inactive). For the same compound, the GI50 (LOX IMVI) was 10 µM (inactive), the GI50 (MDA-MB-231) was 11.7 µM (inactive) and the GI50 (CCRF-CEM) was 12.7 µM (inactive). For the same compound, the GI50 (MDA-MB-435) was 11 µM (inactive), the GI50 (SW-620) was 16.8 µM (inactive) and the GI50 (NCI-H226) was 15 µM (inactive). For the same compound, the GI50 (SNB-75) was 12.8 µM (inactive), the GI50 (UO-31) was 2.38 µM (inactive) and the GI50 (HCT-15) was 6.43 µM. For the same compound, the GI50 (NCI-H460) was 8.11 µM (inactive), the GI50 (HCT-116) was 11.2 µM (inactive) and the GI50 (HOP-92) was 10.7 µM (inactive). For the same compound, the GI50 (UACC-257) was 3.47 µM (inactive), the GI50 (OVCAR-8) was 6.25 µM (inactive) and the GI50 (MDA-N) was 10.9 µM (inactive). The GI50 (A549) was 14.9 µM (inactive), the GI50 (COLO 205) was 1.71 µM (inactive) and the GI50 (SN12C) was 11.8 µM (inactive). For the same compound, the GI50 (TK-10) was 13.7 µM (inactive), the GI50 (SK-MEL-2) was 12.3 µM (inactive) and the GI50 (Hs-578T) was 16 µM (inactive). The GI50 (SNB-19) was 15.8 µM (inactive), the GI50 (IGROV-1) was 10.9 µM (inactive) and the GI50 (SK-MEL-5) was 3.53 µM (inactive). The GI50 (OVCAR-4) was 12.6 µM (inactive), the GI50 (HT-29) was 4.27 µM (inactive) and the GI50 (SF-295) was 15.6 µM (inactive). The GI50 (SK-OV-3) was 13.1 µM (inactive), the GI50 (NCI/ADR-RES) was 8.36 µM (inactive) and the GI50 (KM12) was 11.4 µM (inactive). The GI50 (OVCAR-3) was 12.6 µM (inactive), the GI50 (SK-MEL-28) was 7.69 µM (inactive) and the GI50 (PC-3) was 10.9 µM (inactive). The GI50 (SF-268) was 14.8 µM (inactive), the GI50 (HCC 2998) was 1.73 µM (inactive) and the GI50 (DU-145) was 16 µM (inactive). For the same compound, the GI50 (HOP-62) was 15.1 µM (inactive), the GI50 (U-251) was 11.9 µM (inactive) and the GI50 (Malme-3M) was 11.7 µM (inactive). For the same compound, the GI50 (BT-549) was 13.3 µM (inactive), the GI50 (UACC-62) was 10.6 µM (inactive) and the GI50 (MCF7) was 13.3 µM (inactive). The GI50 (EKVX) was 11 µM (inactive).
With `c1ccc([P+](Cc2ccccc2C[P+](c2ccccc2)(c2ccccc2)c2ccccc2)(c2ccccc2)c2ccccc2)cc1` the GI50 (786-0) was > 100 µM (inactive), the GI50 (T47D) was > 100 µM (inactive) and the GI50 (OVCAR-5) was > 100 µM (inactive). The GI50 (RXF 393) was > 100 µM (inactive), the GI50 (NCI-H522) was > 100 µM (inactive) and the GI50 (SF-539) was > 100 µM (inactive). The GI50 (NCI-H23) was 87.3 µM (inactive), the GI50 (HL-60) was 22.8 µM (inactive) and the GI50 (CAKI-1) was > 100 µM (inactive). For the same compound, the GI50 (ACHN) was > 100 µM (inactive), the GI50 (A498) was > 100 µM (inactive) and the GI50 (K562) was 42.5 µM (inactive). The GI50 (M14) was > 100 µM (inactive), the GI50 (LOX IMVI) was 37.6 µM (inactive) and the GI50 (MDA-MB-231) was > 100 µM (inactive). For the same compound, the GI50 (MDA-MB-435) was 42.8 µM (inactive), the GI50 (SW-620) was > 100 µM (inactive) and the GI50 (NCI-H226) was > 100 µM (inactive). For the same compound, the GI50 (SNB-75) was > 100 µM (inactive), the GI50 (UO-31) was > 100 µM (inactive) and the GI50 (HCT-15) was over 100 µM. For the same compound, the GI50 (NCI-H460) was 38.9 µM (inactive), the GI50 (HCT-116) was 29.4 µM (inactive) and the GI50 (UACC-257) was > 100 µM (inactive). For the same compound, the GI50 (OVCAR-8) was > 100 µM (inactive), the GI50 (MDA-N) was 30.3 µM (inactive) and the GI50 (A549) was > 100 µM (inactive). For the same compound, the GI50 (COLO 205) was > 100 µM (inactive), the GI50 (SN12C) was > 100 µM (inactive) and the GI50 (TK-10) was > 100 µM (inactive). The GI50 (SK-MEL-2) was > 100 µM (inactive), the GI50 (Hs-578T) was > 100 µM (inactive) and the GI50 (SNB-19) was 50.6 µM (inactive). For the same compound, the GI50 (IGROV-1) was 66.1 µM (inactive), the GI50 (SK-MEL-5) was > 100 µM (inactive) and the GI50 (HT-29) was 51.2 µM (inactive). The GI50 (SF-295) was 57.8 µM (inactive), the GI50 (SK-OV-3) was > 100 µM (inactive) and the GI50 (RPMI-8226) was 6.03 µM (inactive). The GI50 (NCI/ADR-RES) was > 100 µM (inactive), the GI50 (KM12) was 49.9 µM (inactive) and the GI50 (OVCAR-3) was 86.7 µM (inactive). For the same compound, the GI50 (SK-MEL-28) was > 100 µM (inactive), the GI50 (PC-3) was > 100 µM (inactive) and the GI50 (SF-268) was > 100 µM (inactive). For the same compound, the GI50 (HCC 2998) was > 100 µM (inactive), the GI50 (DU-145) was > 100 µM (inactive) and the GI50 (HOP-62) was > 100 µM (inactive). For the same compound, the GI50 (U-251) was 63.5 µM (inactive), the GI50 (Malme-3M) was > 100 µM (inactive) and the GI50 (BT-549) was 65.9 µM (inactive). The GI50 (UACC-62) was 44.2 µM (inactive) and the GI50 (MCF7) was > 100 µM (inactive).
